In patent US20200377561A1, “ANTIMICROBIAL PEPTIDES AND METHODS OF TREATING GRAM-NEGATIVE PATHOGEN INFECTIONS: POLAR AND NON-POLAR FACE ANALOGS” (THE REGENTS OF THE UNIVERSITY OF COLORADO, a body corporate, priority 2017, published 2020):
Peptide text beside a SMILES is read from it.

Assays:
[1] = tested on: Acinetobacter baumannii NCTC 13420; assay type: cell-based; conditions: NCTC 13420
Experimental: (§1) Bacterial strains were acquired from the American Type Culture Collection (ATCC, Virginia, USA) and the National Collection of Type Cultures (NCTC, Public Health England, Salisbury, UK). Minimum Inhibitory Concentration (MIC) of peptides versus gram-negative strains-Acinetobacter baumannii NCTC 13420, and Pseudomonas aeruginosa ATCC 27853 and gram-positive strain Staphylococcus aureus ATCC 29213, were determined by broth microdilution as per the guidelines of the Clinical and Laboratory Standards Institute (“Methods for Dilution Antimicrobial Susceptibility Tests for Bacteria That Grow Aerobically”; Approved Standard-Ninth Edition. CLSI document M07-A9, 2012). Peptides were dissolved in sterile distilled water, which was also used as the drug-free vehicle control when determining peptide MICs. Prior to use in the MIC protocol, bacterial strains were grown on Mueller Hinton agar at 37° C. in an ambient atmosphere. […] A fixed inoculum of the test microorganism (5×10^5 cells/mL) is also added to the plate. The MIC is determined as the lowest concentration of compound that inhibits visible bacterial growth following incubation at 37° C. for 16-20 hours. A difference in MIC of two-fold between experimental replicates is considered to be within the normal variability of this protocol.

[2] = tested on: Pseudomonas aeruginosa ATCC 27853; assay type: cell-based; conditions: ATCC 27853
Experimental: as §1

Human erythrocytes = assay: Haemolysis assay using human blood; assay type: cell-based; conditions: red cells of human, 1 h
Experimental: To determine the extent of haemolytic activity (the ability to lyse red blood cells) in test peptides, a haemolysis assay was conducted using human blood (BioIVT, West Sussex, UK). Human erythrocytes were exposed to a single fixed concentration or a range of concentrations as to determine the % haemolysis (fixed concentration) or the concentration at which 50% haemolysis occurred (HC50), respectively. Prior to the assay, whole human blood was repeatedly washed in phosphate buffered saline (PBS) under cooled conditions to remove the buffy coat, plasma and cell debris. Washed erythrocytes were diluted as to achieve 1×10^8 cells/mL in PBS. Prepared human erythrocyte samples were combined with peptide at a single fixed concentration of 128 μg/mL, or a range of concentrations (two-fold dilution series) from 1000-31.25 μg/mL. Positive and negative controls containing 2% (v/v) Triton X-100 and PBS alone, respectively, were also prepared. Samples were incubated at 37° C. for 1 hour and then centrifuged to collect intact erythrocytes. Haemoglobin release was determined by recording the optical density of the supernatant at 540 nm. Optical density values were transformed to a percentage of the positive control. Results were recorded as a percentage haemolysis at 128 μg/mL, or by plotting the percentage haemolysis versus concentration and extrapolating the HC50 using linear regression analysis (Table 2 above)
The therapeutic index is a widely-accepted parameter to represent the specificity of antimicrobial peptides for prokaryotic versus eukaryotic cells. It is calculated by the ratio of hemolytic activity and antimicrobial activity (MIC) (Table 2 above); thus, larger values of therapeutic index indicate greater specificity for prokaryotic cells. With the peptides used in this study the inventors used the HC50/MIC ratio value to calculate the therapeutic index.

[3] = Peptide hydrophobicity by RP-HPLC retention; assay type: physicochemical; conditions: for tR (relative hydrophobicity by RP-HPLC): Zorbax SB-300 C8, 0.25% B/min from 10% B, 0.3 ml/min, 30° C.
Excerpt: Retention behavior in RP-HPLC is an excellent method to represent overall peptide hydrophobicity. Retention times of peptides are highly sensitive to the conformational status of the peptides upon interaction with the hydrophobic environment of the column matrix^17,26. The non-polar faces of amphipathic alpha-helical and amphipathic cyclic beta-sheet peptides represent a preferred binding domain for interaction with the hydrophobic matrix of the reversed-phase column^27. In this study, the observed peptide hydrophobicity was determined by RP-HPLC retention time as described below and are relative hydrophobicities because they are dependent on the TFA concentration and organic solvent in the mobile phase, gradient rate, temperature, flow rate and the column used. Analytical Purification by Reversed-phase Chromatography: Analytical RP-HPLC: Column: Zorbax SB-300 C8 (150×2.1 mm ID; 5-μm particle size; 300 Å pore size). Conditions: linear AB gradient (0.25% B/min from 10% B) at a flow-rate of 0.3 ml/min, where Eluent A is 0.2% aq. TFA and Eluent B is 0.18% TFA in acetonitrile; 30° C.

Antimicrobial Activity MIC A. baumannii NCTC13420 [1] [µg/mL]	P. aeruginosa ATCC27853 MIC [2] [µg/mL]	tR (relative hydrophobicity by RP-HPLC) [3] [min]	ΔtR (Lys) ([3]; retention time difference to the Lys13/Lys16 parent peptide) [min]	Structure (SMILES)	Haemolysis HC50 (Human erythrocytes) [µg/mL]
2	4	94.51		CC(=O)N[C@H](C)C(=O)N[C@H](CC(C)C)C(=O)N[C@H](CCCCN)C(=O)N[C@H](CCCCN)C(=O)N[C@H](CC(C)C)C(=O)N[C@H](CC(C)C)C(=O)N[C@H](CCCCN)C(=O)N[C@H](CCCCN)C(=O)N[C@H](CC(C)C)C(=O)N[C@H](CO)C(=O)N[C@H](CO)C(=O)N[C@H](C)C(=O)N[C@H](CCCCN)C(=O)N[C@H](CO)C(=O)N[C@H](CO)C(=O)N[C@H](CCCCN)C(=O)N[C@H](CC(C)C)C(=O)N[C@H](CO)C(=O)N[C@@H](C(=O)N[C@H](CC(C)C)C(=O)N[C@H](CC(C)C)C(=O)N[C@H](CCCCN)C(=O)N[C@H](CCCCN)C(=O)N[C@H](CC(C)C)C(=O)N[C@H](CCCCN)C(=O)N[C@H](CCCCN)C(N)=O)[C@H](C)O [compound 8] (HELM PEPTIDE1{[ac].[dA].[dL].[dK].[dK].[dL].[dL].[dK].[dK].[dL].[dS].[dS].[dA].[dK].[dS].[dS].[dK].[dL].[dS].[dT].[dL].[dL].[dK].[dK].[dL].[dK].[dK].[am]}$$$$V2.0)	>1000
2	2			CC(=O)N[C@H](C)C(=O)N[C@H](CC(C)C)C(=O)N[C@H](CCCCN)C(=O)N[C@H](CO)C(=O)N[C@H](CC(C)C)C(=O)N[C@H](CC(C)C)C(=O)N[C@H](CCCCN)C(=O)N[C@H](CCCCN)C(=O)N[C@H](CC(C)C)C(=O)N[C@H](CO)C(=O)N[C@H](CCCCN)C(=O)N[C@H](C)C(=O)N[C@H](CCCCN)C(=O)N[C@H](CCCCN)C(=O)N[C@H](CCCCN)C(=O)N[C@H](CCCCN)C(=O)N[C@H](CC(C)C)C(=O)N[C@H](CCCCN)C(=O)N[C@H](CCCCN)C(=O)N[C@H](CC(C)C)C(=O)N[C@H](CC(C)C)C(=O)N[C@H](CCCCN)C(=O)N[C@H](C)C(=O)N[C@H](CC(C)C)C(=O)N[C@H](CO)C(=O)N[C@H](CO)C(N)=O [compound 23] (HELM PEPTIDE1{[ac].[dA].[dL].[dK].[dS].[dL].[dL].[dK].[dK].[dL].[dS].[dK].[dA].[dK].[dK].[dK].[dK].[dL].[dK].[dK].[dL].[dL].[dK].[dA].[dL].[dS].[dS].[am]}$$$$V2.0)	175

Further lines, the molecule ahead of its results:

Structure (SMILES)	Antimicrobial Activity MIC A. baumannii NCTC13420 [1] [µg/mL]	P. aeruginosa ATCC27853 MIC [2] [µg/mL]	tR (relative hydrophobicity by RP-HPLC) [3] [min]	ΔtR (Lys) ([3]; retention time difference to the Lys13/Lys16 parent peptide) [min]	Haemolysis HC50 (Human erythrocytes) [µg/mL]
CC(=O)N[C@H](CCCCN)C(=O)N[C@H](CC(C)C)C(=O)N[C@H](CO)C(=O)N[C@H](CO)C(=O)N[C@H](CC(C)C)C(=O)N[C@H](CC(C)C)C(=O)N[C@H](CO)C(=O)N[C@H](CCCCN)C(=O)N[C@H](CC(C)C)C(=O)N[C@H](CCCCN)C(=O)N[C@H](CCCCN)C(=O)N[C@H](C)C(=O)N[C@H](CCCCN)C(=O)N[C@H](CCCCN)C(=O)N[C@H](CCCCN)C(=O)N[C@H](CCCCN)C(=O)N[C@H](CC(C)C)C(=O)N[C@H](CCCCN)C(=O)N[C@H](CCCCN)C(=O)N[C@H](CC(C)C)C(=O)N[C@H](CC(C)C)C(=O)N[C@H](CCCCN)C(=O)N[C@H](C)C(=O)N[C@H](CC(C)C)C(=O)N[C@H](CO)C(=O)N[C@H](CO)C(N)=O [compound 5] (HELM PEPTIDE1{[ac].[dK].[dL].[dS].[dS].[dL].[dL].[dS].[dK].[dL].[dK].[dK].[dA].[dK].[dK].[dK].[dK].[dL].[dK].[dK].[dL].[dL].[dK].[dA].[dL].[dS].[dS].[am]}$$$$V2.0)	1	2			669
CC(=O)N[C@H](C)C(=O)N[C@H](CC(C)C)C(=O)N[C@H](CO)C(=O)N[C@H](CO)C(=O)N[C@H](CC(C)C)C(=O)N[C@H](CC(C)C)C(=O)N[C@H](CO)C(=O)N[C@H](CCCCN)C(=O)N[C@H](CC(C)C)C(=O)N[C@H](CCCCN)C(=O)N[C@H](CCCCN)C(=O)N[C@H](C)C(=O)N[C@H](CCCCN)C(=O)N[C@H](CCCCN)C(=O)N[C@H](CCCCN)C(=O)N[C@H](CCCCN)C(=O)N[C@H](CC(C)C)C(=O)N[C@H](CCCCN)C(=O)N[C@H](CCCCN)C(=O)N[C@H](CC(C)C)C(=O)N[C@H](CC(C)C)C(=O)N[C@H](CCCCN)C(=O)N[C@H](C)C(=O)N[C@H](CC(C)C)C(=O)N[C@H](CO)C(=O)N[C@H](CO)C(N)=O [compound 10] (HELM PEPTIDE1{[ac].[dA].[dL].[dS].[dS].[dL].[dL].[dS].[dK].[dL].[dK].[dK].[dA].[dK].[dK].[dK].[dK].[dL].[dK].[dK].[dL].[dL].[dK].[dA].[dL].[dS].[dS].[am]}$$$$V2.0)	2	2			>1000
CC(=O)N[C@H](CCCCN)C(=O)N[C@H](CC(C)C)C(=O)N[C@H](CCCCN)C(=O)N[C@H](CCCCN)C(=O)N[C@H](CC(C)C)C(=O)N[C@H](CC(C)C)C(=O)N[C@H](CCCCN)C(=O)N[C@H](CCCCN)C(=O)N[C@H](CC(C)C)C(=O)N[C@H](CO)C(=O)N[C@H](CO)C(=O)N[C@H](C)C(=O)N[C@H](CCCN)C(=O)N[C@H](CO)C(=O)N[C@H](CO)C(=O)N[C@H](CCCN)C(=O)N[C@H](CC(C)C)C(=O)N[C@H](CO)C(=O)N[C@@H](C(=O)N[C@H](CC(C)C)C(=O)N[C@H](CC(C)C)C(=O)N[C@H](CCCCN)C(=O)N[C@H](CCCCN)C(=O)N[C@H](CC(C)C)C(=O)N[C@H](CCCCN)C(=O)N[C@H](CCCCN)C(N)=O)[C@H](C)O [compound 14] (HELM PEPTIDE1{[ac].[dK].[dL].[dK].[dK].[dL].[dL].[dK].[dK].[dL].[dS].[dS].[dA].[NCCC[C@@H](N[*:1])C(=O)[*:2]].[dS].[dS].[NCCC[C@@H](N[*:1])C(=O)[*:2]].[dL].[dS].[dT].[dL].[dL].[dK].[dK].[dL].[dK].[dK].[am]}$$$$V2.0)	2	4	83.40	3.97	>1000
CC(=O)N[C@H](CCCCN)C(=O)N[C@H](CC(C)C)C(=O)N[C@H](CCCCN)C(=O)N[C@H](CO)C(=O)N[C@H](CC(C)C)C(=O)N[C@H](CC(C)C)C(=O)N[C@H](CCCCN)C(=O)N[C@H](CO)C(=O)N[C@H](CC(C)C)C(=O)N[C@H](CO)C(=O)N[C@H](CCCCN)C(=O)N[C@H](C)C(=O)N[C@H](CCCCN)C(=O)N[C@H](CCCCN)C(=O)N[C@H](CCCCN)C(=O)N[C@H](CCCCN)C(=O)N[C@H](CC(C)C)C(=O)N[C@H](CCCCN)C(=O)N[C@H](CO)C(=O)N[C@H](CC(C)C)C(=O)N[C@H](CC(C)C)C(=O)N[C@H](CCCCN)C(=O)N[C@H](C)C(=O)N[C@H](CC(C)C)C(=O)N[C@H](CO)C(=O)N[C@H](CCCCN)C(N)=O [compound 26] (HELM PEPTIDE1{[ac].[dK].[dL].[dK].[dS].[dL].[dL].[dK].[dS].[dL].[dS].[dK].[dA].[dK].[dK].[dK].[dK].[dL].[dK].[dS].[dL].[dL].[dK].[dA].[dL].[dS].[dK].[am]}$$$$V2.0)	1	2			>1000
